This assay has as its target T1, cynomolgus BK1-receptor (Macaca fascicularis, UniProt Q3BCU0).
T1 construct: expressed in transfected cells; host or cells: CHO cells (homogenate)
T1 sequence (Q3BCU0 1-352): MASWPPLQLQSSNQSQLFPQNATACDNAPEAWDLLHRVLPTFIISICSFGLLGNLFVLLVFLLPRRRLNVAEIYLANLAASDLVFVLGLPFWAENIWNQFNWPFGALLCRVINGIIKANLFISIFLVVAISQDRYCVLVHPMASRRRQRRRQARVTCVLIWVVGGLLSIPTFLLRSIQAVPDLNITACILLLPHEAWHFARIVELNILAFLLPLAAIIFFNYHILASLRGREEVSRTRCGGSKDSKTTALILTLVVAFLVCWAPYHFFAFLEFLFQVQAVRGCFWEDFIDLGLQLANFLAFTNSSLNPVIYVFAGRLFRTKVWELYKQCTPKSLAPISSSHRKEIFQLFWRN
Nature of the assay: cynoBK1-receptor binding assay. The settings on record: CHO cells expressing cynomolgus BK1-receptor, radioligand kallidine (DesArg10,Leu9); for inhibition at 10 µM: at 10 μgmol/L. Put shortly:
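Radioligand competition on homogenates of CHO cells expressing cynomolgus BK1 receptor (50 to 250 μg protein/assay), incubated 60-180 minutes at ambient temperature with 0.5 to 5.0 nM [3H]kallidine (DesArg10,Leu9) plus increasing test compound. Filtration binding; non-specific defined with 1.0 μM kallidine (DesArg10); Ki from non-linear curve fitting.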

Where only a bound is given, the exact number is not on record here.

As to `Cn1ccnc1C(=O)NC1(C(=O)NCc2ccc(Nc3ccccc3C(F)(F)F)cc2)CC1` [(18)], the inhibition (as a rule, the drop in the measured response relative to a control, in per cent) at 10 µM came out at 67%.

`NC(=O)c1ccc(Nc2ccc(CNC(=O)C3(NC(=O)c4cncnc4)CC3)nc2)c(C(F)(F)F)c1` [(198)]: the Ki – broadly, the equilibrium dissociation constant of an inhibitor or competing ligand from its target – is above 500 nM and the inhibition at 10 µM was determined as 64%.

For the compound `O=C(NC1(C(=O)NCc2ccc(Nc3ccc(Cl)cc3C(F)(F)F)cn2)CC1)c1cncc(C(F)(F)F)c1` [(354)], the Ki is 27 nM.

In the case of `Cc1ncc(C(=O)NC2(C(=O)NCc3ncc(Nc4c(F)cccc4C(F)(F)F)cc3F)CC2)cn1` [(134)], the Ki amounted to 4.7 nM and the inhibition at 10 µM came to 101%.

In the case of `O=C(N[C@@]1(C(=O)NCc2ncc(Nc3ccc(F)cc3C(F)(F)F)cc2F)CCOC1)c1cncnc1` [(153)], the Ki amounted to 9.7 nM and the inhibition at 10 µM came out at 106%.

On to `CC(NC(=O)C1(NC(=O)c2cncc(N)c2)CC1)c1ncc(Nc2c(F)cccc2C(F)(F)F)cc1F` (stereo not drawn) [(122)], for which the affinity corresponds to a Ki of 6.3 nM and the inhibition at 10 µM is 113%.

On to `Cc1ncc(C(=O)N[C@@]2(C(=O)NCc3ncc(Nc4ccccc4C(F)(F)F)cc3C)CCOC2)cn1` [(366)], for which the Ki was found to be 33 nM. This lies in the double-digit nanomolar range.

`Cc1ncc(C(=O)N[C@@]2(C(=O)NCc3ncc(Nc4ccc(F)cc4C(F)(F)F)cc3F)CCOC2)cn1` [(267)] yielded a Ki of 5.5 nM.

With `O=C(NC1(C(=O)NCc2ccc(Nc3ccc(F)cc3C(F)(F)F)cn2)CC1)c1cncc(C(F)(F)F)c1` [(340)], affinity was put at a Ki of 28 nM.

Compound `COc1ncc(C(=O)N[C@@]2(C(=O)NCc3ccc(Nc4ccc(F)cc4C(F)(F)F)cc3)CCOC2)cn1` [(300)] returned a Ki of 45 nM.

Regarding `CC(C)c1ncc(C(=O)NC2(C(=O)NCc3ccc(Nc4ccc(F)cc4C(F)(F)F)cn3)CC2)cn1` [(245)], affinity was put at a Ki of 18 nM.

`Cc1ncc(C(=O)N[C@@]2(C(=O)NCc3ccc(Nc4ccc(Cl)cc4C(F)(F)F)cc3)CCOC2)cn1` [(317)] showed a Ki of 30 nM.

`O=C(NC1(C(=O)NCc2ccc(Nc3ccc(Cl)cc3C(F)(F)F)cn2)CC1)c1cnc(O)nc1` [(350)]: the Ki was determined as 43 nM.

`Cc1ncc(C(=O)N[C@@]2(C(=O)NCc3ccc(Nc4ccc(F)cc4C(F)(F)F)cc3)CCOC2)cn1` [(288)] returned an inhibition constant Ki of 9.1 nM.

As to `O=C(Cc1ccccn1)N[C@@]1(C(=O)NCc2ccc(Nc3ccccc3C(F)(F)F)cc2)CCOC1` [(59)], the inhibition at 10 µM is 22%.

`Cc1ncc(C(=O)NC2(C(=O)NCc3ncc(Nc4ccc(Cl)cc4C(F)(F)F)cc3C)CC2)cn1` [(360)] displayed a Ki of 2.5 nM.

As to `COc1ncc(C(=O)N[C@@]2(C(=O)NCc3ccc(Nc4ccc(F)cc4C(F)(F)F)cn3)CCOC2)cn1` [(327)], the affinity, expressed as Ki, was 89 nM.

The record behind these values is US20130131075A1, “NEW COMPOUNDS” (Boehringer Ingelheim International GmbH, priority 2009, published 2013).
